Laboratory results reported in patent US5391540A, “Substituted pyridine compounds” (Rohm and Haas Company, priority 1993, dated 1995).

What was measured:
Assay type in all cases: in vivo
Barnyardgrass = assay: Pre-emergent herbicidal activity (Table A); settings: Echinochloa crus-galli, pre-emergence, Bygr, 11.2 kg/ha, 10-14 days, read-out: herbicidal rating (% inhibition)
Method in brief: (§1)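 Seeds or vegetative propagules were set on topsoil compacted to 0.95 to 1.27 cm below the pan rim, then covered with soil thoroughly mixed with a known amount of test compound in acetone or water carrier. Ratings follow a scale of percent inhibition per species.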

Cocklebur = assay: Pre-emergent herbicidal activity (Table A); settings: Xanthium strumarium, pre-emergence, Cobu, 11.2 kg/ha, 10-14 days, read-out: herbicidal rating (% inhibition)
Method in brief: as §1

Downy Brome = assay: Pre-emergent herbicidal activity (Table A); settings: Bromus tectorum, pre-emergence, Dobr, 11.2 kg/ha, 10-14 days, read-out: herbicidal rating (% inhibition)
Method in brief: as §1

Morningglory = assay: Pre-emergent herbicidal activity (Table A); settings: Ipomoea, pre-emergence, Mogl, 11.2 kg/ha, 10-14 days, read-out: herbicidal rating (% inhibition)
Method in brief: as §1

Velvetleaf = assay: Pre-emergent herbicidal activity (Table A); settings: Abutilon theophrasti, pre-emergence, Vele, 11.2 kg/ha, 10-14 days, read-out: herbicidal rating (% inhibition)
Method in brief: as §1

Yellow Nutsedge = assay: Pre-emergent herbicidal activity (Table A); settings: Cyperus, pre-emergence, Yens, 11.2 kg/ha, 10-14 days, read-out: herbicidal rating (% inhibition)
Method in brief: as §1

Bygr = assay: plant injury after spraying emerged plants (Table D); parameters: scale not given here
Method in brief: (§2)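 Seeds or perennial propagules were pressed onto steam-sterilized sieved silt loam topsoil and covered with 1.27 cm of a 50:50 topsoil and peat moss/vermiculite/wetting agent mix. Pans were kept on a greenhouse bench over capillary mat and subirrigated as needed.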

Cobu = assay: as above; parameters: scale not given here
Method in brief: as §2

Corn = assay: as above; parameters: scale not given here
Method in brief: as §2

Grft = assay: as above; parameters: scale not given here
Method in brief: as §2

Grso = assay: as above; parameters: scale not given here
Method in brief: as §2

Lacg = assay: as above; parameters: scale not given here
Method in brief: as §2

Mogl = assay: as above; parameters: scale not given here
Method in brief: as §2

Prmi = assay: as above; parameters: scale not given here
Method in brief: as §2

Rice = assay: as above; parameters: scale not given here
Method in brief: as §2

Sobe = assay: as above; parameters: scale not given here
Method in brief: as §2

Whez = assay: as above; parameters: scale not given here
Method in brief: as §2

SMILES: COC(=O)c1c(OC)nc(C(F)(F)F)c(C(=O)n2cccn2)c1CC1CC1 [Compound 116, 3-pyridinecarboxylic acid, 4-(cyclopropylmethyl)-2-methoxy-5-(1H-pyrazo1-1-ylcarbonyl)-6-(trifluoromethyl)-, methyl ester]
- inhibition at 11200 g/ha (Barnyardgrass): 75 to 100%
- inhibition at 11200 g/ha (Cocklebur): 50 to 74%
- inhibition at 11200 g/ha (Downy Brome): 75 to 100%
- inhibition at 11200 g/ha (Morningglory): 75 to 100%
- inhibition at 11200 g/ha (Velvetleaf): 75 to 100%
- inhibition at 11200 g/ha (Yellow Nutsedge): 75 to 100%
- plant injury rating, Bygr (Bygr; 0.0701 kg/ha): 0
- plant injury rating, Bygr (Bygr; 0.2803 kg/ha): 0
- plant injury rating, Bygr (Bygr; 1.1210 kg/ha): 0
- plant injury rating, Bygr (Bygr; 5.6050 kg/ha): 1
- plant injury rating, Cobu (Cobu; 0.0701 kg/ha): 0
- plant injury rating, Cobu (Cobu; 0.2803 kg/ha): 1
- plant injury rating, Cobu (Cobu; 1.1210 kg/ha): 2
- plant injury rating, Cobu (Cobu; 5.6050 kg/ha): 2
- plant injury rating, Corn (Corn; 0.0701 kg/ha): 0
- plant injury rating, Corn (Corn; 0.2803 kg/ha): 0
- plant injury rating, Corn (Corn; 1.1210 kg/ha): 2
- plant injury rating, Corn (Corn; 5.6050 kg/ha): 2
- plant injury rating, Grft (Grft; 0.0701 kg/ha): 0
- plant injury rating, Grft (Grft; 0.2803 kg/ha): 0
- plant injury rating, Grft (Grft; 1.1210 kg/ha): 0
- plant injury rating, Grft (Grft; 5.6050 kg/ha): 1
- plant injury rating, Grso (Grso; 0.2803 kg/ha): 0
- plant injury rating, Grso (Grso; 1.1210 kg/ha): 0
- plant injury rating, Grso (Grso; 5.6050 kg/ha): 1
- plant injury rating, Lacg (Lacg; 0.0701 kg/ha): 2
- plant injury rating, Lacg (Lacg; 0.2803 kg/ha): 2
- plant injury rating, Lacg (Lacg; 1.1210 kg/ha): 2
- plant injury rating, Lacg (Lacg; 5.6050 kg/ha): 2
- plant injury rating, Mogl (Mogl; 0.0701 kg/ha): 2
- plant injury rating, Mogl (Mogl; 0.2803 kg/ha): 1
- plant injury rating, Mogl (Mogl; 1.1210 kg/ha): 2
- plant injury rating, Mogl (Mogl; 5.6050 kg/ha): 2
- plant injury rating, Prmi (Prmi; 0.0701 kg/ha): 0
- plant injury rating, Prmi (Prmi; 0.2803 kg/ha): 0
- plant injury rating, Prmi (Prmi; 1.1210 kg/ha): 0
- plant injury rating, Prmi (Prmi; 5.6050 kg/ha): 0
- plant injury rating, Rice (Rice; 0.0701 kg/ha): 0
- plant injury rating, Rice (Rice; 0.2803 kg/ha): 0
- plant injury rating, Rice (Rice; 1.1210 kg/ha): 0
- plant injury rating, Rice (Rice; 5.6050 kg/ha): 0
- plant injury rating, Sobe (Sobe; 0.0701 kg/ha): 1
- plant injury rating, Sobe (Sobe; 0.2803 kg/ha): 1
- plant injury rating, Sobe (Sobe; 1.1210 kg/ha): 2
- plant injury rating, Sobe (Sobe; 5.6050 kg/ha): 2
- plant injury rating, Whez (Whez; 0.0701 kg/ha): 0
- plant injury rating, Whez (Whez; 0.2803 kg/ha): 0
- plant injury rating, Whez (Whez; 1.1210 kg/ha): 0
- plant injury rating, Whez (Whez; 5.6050 kg/ha): 0

SMILES: COC(=O)c1c(OC)nc(C(F)(F)F)c(C(=O)SC)c1C1CCC1 [Compound 137, 3-pyridinecarboxylic acid, 4-cyclobuty1-2-methoxy-5-[(methylthio)carbonyl]-6-(trifluoromethyl)-, methyl ester]
- inhibition at 11200 g/ha (Barnyardgrass): 75 to 100%
- inhibition at 11200 g/ha (Cocklebur): 75 to 100%
- inhibition at 11200 g/ha (Downy Brome): 75 to 100%
- inhibition at 11200 g/ha (Morningglory): 75 to 100%
- inhibition at 11200 g/ha (Velvetleaf): 75 to 100%
- inhibition at 11200 g/ha (Yellow Nutsedge): 75 to 100%
- plant injury rating, Bygr (Bygr; 0.2803 kg/ha): 1
- plant injury rating, Bygr (Bygr; 1.1210 kg/ha): 2
- plant injury rating, Bygr (Bygr; 5.6050 kg/ha): 2
- plant injury rating, Cobu (Cobu; 0.2803 kg/ha): 0
- plant injury rating, Cobu (Cobu; 1.1210 kg/ha): 1
- plant injury rating, Cobu (Cobu; 5.6050 kg/ha): 3
- plant injury rating, Corn (Corn; 0.2803 kg/ha): 0
- plant injury rating, Corn (Corn; 1.1210 kg/ha): 0
- plant injury rating, Corn (Corn; 5.6050 kg/ha): 1
- plant injury rating, Grft (Grft; 0.2803 kg/ha): 2
- plant injury rating, Grft (Grft; 1.1210 kg/ha): 2
- plant injury rating, Grft (Grft; 5.6050 kg/ha): 2
- plant injury rating, Grso (Grso; 0.2803 kg/ha): 0
- plant injury rating, Grso (Grso; 1.1210 kg/ha): 0
- plant injury rating, Grso (Grso; 5.6050 kg/ha): 2
- plant injury rating, Lacg (Lacg; 0.2803 kg/ha): 3
- plant injury rating, Lacg (Lacg; 1.1210 kg/ha): 3
- plant injury rating, Lacg (Lacg; 5.6050 kg/ha): 3
- plant injury rating, Mogl (Mogl; 0.2803 kg/ha): 1
- plant injury rating, Mogl (Mogl; 1.1210 kg/ha): 1
- plant injury rating, Mogl (Mogl; 5.6050 kg/ha): 2
- plant injury rating, Prmi (Prmi; 0.2803 kg/ha): 0
- plant injury rating, Prmi (Prmi; 1.1210 kg/ha): 0
- plant injury rating, Prmi (Prmi; 5.6050 kg/ha): 1
- plant injury rating, Rice (Rice; 0.2803 kg/ha): 0
- plant injury rating, Rice (Rice; 1.1210 kg/ha): 1
- plant injury rating, Rice (Rice; 5.6050 kg/ha): 1
- plant injury rating, Sobe (Sobe; 0.2803 kg/ha): 0
- plant injury rating, Sobe (Sobe; 1.1210 kg/ha): 2
- plant injury rating, Sobe (Sobe; 5.6050 kg/ha): 2
- plant injury rating, Whez (Whez; 0.2803 kg/ha): 0
- plant injury rating, Whez (Whez; 1.1210 kg/ha): 0
- plant injury rating, Whez (Whez; 5.6050 kg/ha): 0

SMILES: COC(=O)c1c(OC)nc(C(F)(F)F)c(C(=O)n2ccc(F)n2)c1C1CCC1 [Compound 140, 3-pyridinecarboxylic acid, 4-cyclobuty1-5-[(3-fluoro-1H-pyrazo1-1-yl)carbonyl]-2-methoxy-6-(trifluoromethyl)-, methyl ester]
- inhibition at 11200 g/ha (Barnyardgrass): 75 to 100%
- inhibition at 11200 g/ha (Cocklebur): 0 to 24%
- inhibition at 11200 g/ha (Downy Brome): 75 to 100%
- inhibition at 11200 g/ha (Morningglory): 75 to 100%
- inhibition at 11200 g/ha (Velvetleaf): 75 to 100%
- inhibition at 11200 g/ha (Yellow Nutsedge): 0 to 24%
- plant injury rating, Bygr (Bygr; 0.2803 kg/ha): 0
- plant injury rating, Bygr (Bygr; 1.1210 kg/ha): 0
- plant injury rating, Bygr (Bygr; 5.6050 kg/ha): 0
- plant injury rating, Cobu (Cobu; 0.2803 kg/ha): 1
- plant injury rating, Cobu (Cobu; 1.1210 kg/ha): 3
- plant injury rating, Cobu (Cobu; 5.6050 kg/ha): 3
- plant injury rating, Corn (Corn; 0.2803 kg/ha): 2
- plant injury rating, Corn (Corn; 1.1210 kg/ha): 1
- plant injury rating, Corn (Corn; 5.6050 kg/ha): 2
- plant injury rating, Grft (Grft; 0.2803 kg/ha): 0
- plant injury rating, Grft (Grft; 1.1210 kg/ha): 0
- plant injury rating, Grft (Grft; 5.6050 kg/ha): 0
- plant injury rating, Grso (Grso; 0.2803 kg/ha): 0
- plant injury rating, Grso (Grso; 1.1210 kg/ha): 0
- plant injury rating, Grso (Grso; 5.6050 kg/ha): 0
- plant injury rating, Lacg (Lacg; 0.2803 kg/ha): 2
- plant injury rating, Lacg (Lacg; 1.1210 kg/ha): 2
- plant injury rating, Lacg (Lacg; 5.6050 kg/ha): 3
- plant injury rating, Mogl (Mogl; 0.2803 kg/ha): 2
- plant injury rating, Mogl (Mogl; 1.1210 kg/ha): 2
- plant injury rating, Mogl (Mogl; 5.6050 kg/ha): 2
- plant injury rating, Prmi (Prmi; 0.2803 kg/ha): 0
- plant injury rating, Prmi (Prmi; 1.1210 kg/ha): 0
- plant injury rating, Prmi (Prmi; 5.6050 kg/ha): 0
- plant injury rating, Rice (Rice; 0.2803 kg/ha): 0
- plant injury rating, Rice (Rice; 1.1210 kg/ha): 0
- plant injury rating, Rice (Rice; 5.6050 kg/ha): 0
- plant injury rating, Sobe (Sobe; 1.1210 kg/ha): 2
- plant injury rating, Sobe (Sobe; 5.6050 kg/ha): 2
- plant injury rating, Whez (Whez; 0.2803 kg/ha): 0
- plant injury rating, Whez (Whez; 1.1210 kg/ha): 0
- plant injury rating, Whez (Whez; 5.6050 kg/ha): 0
